Measurements from patent US11434220B2, “Use of physiological cooling active ingredients, and compositions comprising such active ingredients” (BASF SE, priority 2017, dated 2022).

What was measured:
[1] = target: T1, human TRPM8 receptor (Homo sapiens, UniProt Q7Z2W7); assay: Assay for TRPM8 modulators: Ca2+ fluorescence (Fluo-4) in HEK293-TRPM8 test cells; type: cell-based; details: HEK293 cells stably transfected with human TRPM8, agonism, triplicates, 0.1-200 μM; read-out: Activity In vitro assay (EC50)
T1 construct: expressed in transfected cells
Source text: The test cell system produced, with human TRPM8 DNA, was a stably transfected HEK293 cell line. Preference is given here to HEK293 which, via the plasmid introduced, offers the option of induction of TRPM8 expression by means of tetracycline.
The agonism or antagonism of the receptor can be quantified by means of a Ca^2+-sensitive dye (e.g. FURA, Fluo-4 etc.). Agonists on their own result in an increase in the Ca^2+ signal; antagonists in the presence of menthol, for example, result in a reduction in the Ca^2+ signal (in each case detected by means of the Fluo-4 dye which is caused to have different fluorescence properties by Ca^2+).
First of all, in a manner known per se, a fresh culture of transformed HEK cells is produced in cell culture bottles. The HEK293-TRPM8 test cells are detached from the cell culture bottles by means of trypsin and 40 000 cells/well are sown with 100 μl of medium in 96-hole plates (Greiner #655948 poly-D-lysine-coated). For induction of the TRPM8 receptor, tetracycline is added to the growth medium (DMEM/HG, 10% FCS tetracycline-free, 4 mM L-glutamine, 15 μg/mL blasticidin, 100 μg/mL hygromycin B, 1 μg/mL tetracycline). The next day, the cells are laden with Fluo-4AM dye and the test is conducted.
The test substances are used in the assay in triplicates in concentrations of 0.1-200 μM. Normally, the compounds are kept in DMSO solutions and diluted down for the assay to a maximum DMSO concentration of 2%.

[2] = tested on: trained panelists; assay: Sensory assessment: cooling intensity of inventive amides in 5% sugar solution compared to FEMA 4809; type: in vivo, human; details: scale 1 (very weak) to 9 (very strong), n=10 to 11
Procedure: […] What were assessed here were initial cooling intensity, overall cooling intensity and long-lasting action on a scale from 1 (very weak) to 9 (very strong).

T1 sequence (Q7Z2W7 whole entry): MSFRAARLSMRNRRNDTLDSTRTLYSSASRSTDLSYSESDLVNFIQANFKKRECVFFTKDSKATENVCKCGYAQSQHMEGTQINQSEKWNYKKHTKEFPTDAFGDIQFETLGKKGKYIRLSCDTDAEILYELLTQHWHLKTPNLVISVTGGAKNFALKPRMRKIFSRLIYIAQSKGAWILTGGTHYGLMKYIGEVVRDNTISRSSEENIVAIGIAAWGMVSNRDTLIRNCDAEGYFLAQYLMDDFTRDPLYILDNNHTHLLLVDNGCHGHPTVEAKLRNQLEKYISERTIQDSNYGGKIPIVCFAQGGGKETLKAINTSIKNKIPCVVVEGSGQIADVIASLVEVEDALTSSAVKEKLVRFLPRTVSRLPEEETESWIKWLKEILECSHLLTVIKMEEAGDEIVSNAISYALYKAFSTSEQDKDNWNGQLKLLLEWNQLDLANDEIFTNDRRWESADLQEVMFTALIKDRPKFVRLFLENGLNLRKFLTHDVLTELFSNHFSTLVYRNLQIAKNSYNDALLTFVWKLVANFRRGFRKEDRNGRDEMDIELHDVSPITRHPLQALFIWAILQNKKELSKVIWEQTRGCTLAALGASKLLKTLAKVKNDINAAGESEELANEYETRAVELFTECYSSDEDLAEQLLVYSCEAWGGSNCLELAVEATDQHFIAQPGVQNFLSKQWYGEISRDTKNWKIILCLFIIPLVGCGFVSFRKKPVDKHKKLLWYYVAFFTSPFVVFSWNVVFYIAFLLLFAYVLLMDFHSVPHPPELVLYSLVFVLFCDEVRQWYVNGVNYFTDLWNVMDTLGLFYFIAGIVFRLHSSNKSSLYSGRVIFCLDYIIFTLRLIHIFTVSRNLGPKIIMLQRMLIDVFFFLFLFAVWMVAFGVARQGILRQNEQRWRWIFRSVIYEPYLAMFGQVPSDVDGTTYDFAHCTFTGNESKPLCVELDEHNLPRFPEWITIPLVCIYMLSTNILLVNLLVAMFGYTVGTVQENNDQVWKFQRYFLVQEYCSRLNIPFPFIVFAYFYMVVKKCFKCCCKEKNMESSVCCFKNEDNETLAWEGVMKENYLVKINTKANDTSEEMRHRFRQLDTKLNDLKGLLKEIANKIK

SMILES	EC50 [1] [µM]	Initial cooling effect ([2]; 20 ppm in 5% sugar solution)	Long-lasting action ([2]; 20 ppm in 5% sugar solution)	Overall cooling intensity ([2]; 20 ppm in 5% sugar solution)	Initial cooling effect ([2]; 2 ppm in 5% sugar solution)	Long-lasting action ([2]; 2 ppm in 5% sugar solution)	Overall cooling intensity ([2]; 2 ppm in 5% sugar solution)
CSCCN(C(=O)COc1ccc(C)cc1)c1ccccc1 [2-(4-methylphenoxy)-N-(2-methylsulfanylethyl)-N-phenyl-acetamide]	25	2.2	2.8	2.8			
O=C(/C=C/c1ccc2c(c1)OCO2)N(c1ccccn1)C1CCSC1 (centres unmarked) [(E)-3-(1,3-benzodioxol-5-yl)-N-(2-pyridyl)-N-tetrahydrothiophen-3-yl-prop-2-enamide]	6	6.6	7.9	8.3			
CCN(CCSC)C(=O)/C=C/c1ccc2c(c1)OCO2 [(E)-3-(1,3-benzodioxol-5-yl)-N-ethyl-N-(2-methylsulfanylethyl)prop-2-enamide]	15	3.8	4.7	5			
O=C(/C=C/c1ccc2c(c1)OCO2)N(CC1CCCO1)c1ccccc1 (centres unmarked) [(E)-3-(1,3-benzodioxol-5-yl)-N-phenyl-N-(tetrahydrofuran-2-ylmethyl)prop-2-enamide]	5	3.1	5.3	5.0			
O=C(/C=C/c1ccc2c(c1)OCO2)N(c1ccccc1)C1CCOC1 (centres unmarked) [(E)-3-(1,3-benzodioxol-5-yl)-N-phenyl-N-tetrahydrofuran-3-yl-prop-2-enamide]	25	5.8	7.9	7.8	4.1	6.9	6.1
COc1ccc(/C=C/C(=O)N(c2ccccn2)C2CCSC2)cc1 (centres unmarked) [(E)-3-(4-methoxyphenyl)-N-(2-pyridyl)-N-tetrahydrothiophen-3-yl-prop-2-enamide]	25	4.1	5.9	5.6			
COc1ccc(/C=C/C(=O)N(c2ccccc2)C2CCOC2)cc1 (centres unmarked) [(E)-3-(4-methoxyphenyl)-N-phenyl-N-tetrahydrofuran-3-yl-prop-2-enamide]	12.5						
Cc1ccc(/C=C/C(=O)N(CC2CCCO2)c2cc[nH]n2)cc1 (centres unmarked) [(E)-3-(p-tolyl)-N-(1H-pyrazol-3-yl)-N-(tetrahydrofuran-2-ylmethyl)prop-2-enamide]	10						
Cc1ccc(/C=C/C(=O)N(c2ccccn2)C2CCSC2)cc1 (centres unmarked) [(E)-3-(p-tolyl)-N-(2-pyridyl)-N-tetrahydrothiophen-3-yl-prop-2-enamide]	25	5.3	7.4	7.0			
O=C(/C=C/c1ccccc1)N(c1ccccn1)C1CCSC1 (centres unmarked) [(E)-3-phenyl-N-(2-pyridyl)-N-tetrahydrothiophen-3-yl-prop-2-enamide]	30	5.3	7.8	7.8			
COc1ccc(/C=C/C(=O)N(c2ccsc2)C2CCCCC2)cc1 [(E)-N-cyclohexyl-3-(4-methoxyphenyl)-N-(3-thienyl)prop-2-enamide]	25						
CCN(CCSC)C(=O)/C=C/c1ccc(C)cc1 [(E)-N-ethyl-N-(2-methylsulfanylethyl)-3-(p-tolyl)prop-2-enamide]	10						
Cc1ccc(/C=C/C(=O)N(CC2CCCO2)c2ccccc2)cc1 (centres unmarked) [(E)-N-phenyl-3-(p-tolyl)-N-(tetrahydrofuran-2-ylmethyl)prop-2-enamide]	5						
Cc1ccc(OCC(=O)N(c2ccsc2)C2CCCCC2)cc1 [N-cyclohexyl-2-(4-methylphenoxy)-N-(3-thienyl)acetamide]	30						
